Test results published in patent publication US20260216169A1, “NAPHTHYLAMIDE COMPOUND, AND PREPARATION METHOD THEREFOR AND USE THEREOF” (SHENZHEN CHIPSCREEN BIOSCIENCES CO., LTD., priority 2022, published 2026).

Assays:
Aurora B kinase = Aurora B kinase (Homo sapiens, UniProt Q96GD4); test: HTRF KinEASE test of inhibitory activity against Aurora B kinase; type: biochemical; set-up: purchased Carna 05-102; conditions: Carna kinase, substrate S2
Description: (§1) Preparation of working solutions of compounds in DMSO with gradient concentrations: 0.2 mM solutions of the compounds in DMSO were prepared and serially diluted with DMSO to form working solutions with 10 gradient concentrations (corresponding to final compound concentrations of 1000 nM, 300 nM, 100 nM, 30 nM, 10 nM, 3 nM, 1 nM, 0.3 nM, 0.1 nM, and 0.03 nM in the reaction system).
(§2) Tests of inhibitory activity against Aurora B kinase and VEGFR2: The half maximal inhibitory concentrations (IC50) of the compounds against Aurora B kinase and VEGFR2 were determined using HTRF KinEASE-TK kit (Cisbio, Cat #62TKOPEC) and HTRF KinEASE-STK kit (Cisbio, Cat #61ST2BLE). A 2× kinase & Metal solution (Aurora B/Cat #05-102 and VEGFR2/Cat #08-191, both purchased from Carna) and a 2× Substrate & ATP solution (for Aurora B and VEGFR2, substrates S2 and TK were used, respectively) were prepared according to the kit instructions. The working solutions of the test compounds with gradient concentrations were added to a 384-well plate at 25 nL/well, and 2.5 μL of the 2× kinase & Metal solution was added to each well. The plate was sealed with a plate-sealing film, well shaken, centrifuged, and then incubated at 25° C. for 10 min. Then, the 2× Substrate & ATP solution was added at 2.5 μL/well, and the plate was incubated again at 25° C. for 30 min. Finally, a 2× XL665 & Antibody kinase detection reaction solution was added at 5 μL/well. After the plate was incubated at 25° C. for 60 min, the fluorescence signals at wavelengths of 665 nm and 620 nm in each well were measured by a microplate reader.
(§3) The 665 nm/620 nm fluorescence signal ratio (X) of each well was calculated. With the compound-free well as a negative control (Y) and the enzyme-free well as a positive control (Z), the inhibition rate of the compound in each test well against the corresponding kinase was calculated using the formula: inhibition (%)=100%−(X−Z)/(Y−Z)×100%, and the half maximal inhibitory concentration (IC50) of each compound against the corresponding kinase was calculated by GraphPad 7.0 software.

VEGFR2 = molecular target: T1, VEGFR2 (Homo sapiens, UniProt P35968); test: HTRF KinEASE test against VEGFR2, reported as relative selectivity IC50-VEGFR2/IC50-Aurora B; type: biochemical; conditions: ratio of IC50 against VEGFR2 to IC50 against Aurora B
T1 construct: purchased Carna 08-191
T1 sequence (P35968 790-1356 limits assumed): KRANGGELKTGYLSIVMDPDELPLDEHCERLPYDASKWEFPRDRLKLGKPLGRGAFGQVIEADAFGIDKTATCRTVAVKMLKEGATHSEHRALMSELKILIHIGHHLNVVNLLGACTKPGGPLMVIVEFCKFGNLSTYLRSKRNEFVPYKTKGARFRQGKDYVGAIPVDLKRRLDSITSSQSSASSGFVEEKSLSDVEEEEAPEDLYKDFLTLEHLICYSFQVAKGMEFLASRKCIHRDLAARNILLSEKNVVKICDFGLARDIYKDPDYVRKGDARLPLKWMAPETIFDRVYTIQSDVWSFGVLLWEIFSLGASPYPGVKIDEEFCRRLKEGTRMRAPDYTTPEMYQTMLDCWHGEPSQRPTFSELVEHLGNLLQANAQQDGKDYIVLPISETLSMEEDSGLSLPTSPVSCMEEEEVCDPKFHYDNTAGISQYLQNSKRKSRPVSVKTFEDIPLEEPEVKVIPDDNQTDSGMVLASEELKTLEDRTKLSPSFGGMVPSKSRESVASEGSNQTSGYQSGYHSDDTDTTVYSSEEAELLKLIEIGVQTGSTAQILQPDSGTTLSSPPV
Description: as §1, §2, §3

[1] = Brain permeation assay in mice; type: in vivo; conditions: B/C, mouse, oral; female mice, 5 mg/kg intragastric, 4 h after administration; read-out: Brain permeation (ratio of compound concentration in brain tissue to concentration in plasma)
Description: The objective of this example was to test whether the compounds of the present disclosure are able to cross the blood-brain barrier (BBB). The compounds of the present disclosure were dissolved in a vehicle containing 5% dimethyl sulfoxide, 60% 1,3-propanediol, and 35% purified water, and intragastrically administered to B/C female mice aged 6 weeks (purchased from Guangdong Medical Laboratory Animal Center) at 5 mg/kg. The animals were sacrificed 4 h after the administration, and blood and brain tissue samples were collected. The blood samples were anticoagulated with K2-EDTA and centrifuged at 5000 rpm for 5 min to separate plasma. The brain tissue samples were accurately weighed and homogenized with a certain amount of phosphate-buffered saline (PBS) solution, and the biological samples were stored at −80° C. before analysis. After sample extraction, the compound concentration was determined using a liquid chromatography-tandem mass spectrometry (LC-MS/MS) system. Brain permeation was defined as the ratio of the compound concentration in brain tissue to the concentration in plasma.

Molt-4 cells = test: Effects on tumor cell cycle, PI staining and flow cytometry; type: cell-based, human; conditions: 48 h
Excerpt: When the activity of Aurora B kinase is inhibited in tumor cells, the arrangement and separation of chromosomes are blocked, leading to cytokinesis failure and the formation of tetraploid or polyploid cells. Moreover, severe genomic instability and mitotic catastrophe result in apoptosis. The intracellular DNA content can be mapped with propidium iodide (PI), a fluorescent dye that specifically binds to nucleic acid, so that cell states can be distinguished into sub-G0/G1 (apoptosis), G0/G1, S, G2/M (tetraploid), and polyploid states.
Experimental process: Molt-4 cells (human acute lymphoblastic leukemia cells, CRL-1582) were purchased from the American Type Culture Collection (ATCC). Molt-4 cells in the logarithmic growth phase were collected from suspension culture and counted. The cells were seeded into a 6-well plate at 10^6 cells/well and cultured overnight under normal conditions. The test compounds were prepared as 1 mM and 3 mM solutions in DMSO, and the solutions in DMSO were diluted 50-fold with culture medium. Finally, the above solutions were added to the culture system in a volume ratio of 1:19, achieving a final compound concentration of 1 μM or 3 μM in each well. After 48 h of incubation, the cells were collected by centrifugation. Each cell sample was resuspended in 300 μL of PBS, and the suspension was added dropwise to 700 μL of pre-cooled absolute ethanol. Then the mixture was gently inverted several times for thorough mixing to complete cell collection and fixation. The samples were left to stand at 4° C. for more than 12 h and then analyzed by flow cytometry.
A working dye solution was prepared by homogeneously mixing PBS, a 10 mg/mL PI stock solution, and a 10 mg/mL RNase A solution in a ratio of 1000:5:2. The fixed cell samples were centrifuged at 4° C. and 1000 rpm for 10 min. The supernatants were completely removed using a pipette, and the cells were washed twice with PBS and resuspended in the above working dye solution at […]. After incubation in a dark place at 37° C. for 30 min, the cells were filtered using a 200-mesh stainless steel strainer, and the filtrate was loaded onto a flow cytometer for cell cycle analysis (10,000 cells counted per sample).
Histograms showing DNA contents were obtained from the flow cytometry analysis, and the cell cycle distribution in each sample was analyzed using the flow cytometry data analysis software FlowJo. The mean (X) and standard deviation (SD) were calculated, and data were represented as X±SD. The apoptosis and the proportions of tetraploid and polyploid cells after Molt-4 cells were treated with different doses of the test compounds are shown in Table 3 below.

Aurora B kinase, sequence (Q96GD4 whole entry): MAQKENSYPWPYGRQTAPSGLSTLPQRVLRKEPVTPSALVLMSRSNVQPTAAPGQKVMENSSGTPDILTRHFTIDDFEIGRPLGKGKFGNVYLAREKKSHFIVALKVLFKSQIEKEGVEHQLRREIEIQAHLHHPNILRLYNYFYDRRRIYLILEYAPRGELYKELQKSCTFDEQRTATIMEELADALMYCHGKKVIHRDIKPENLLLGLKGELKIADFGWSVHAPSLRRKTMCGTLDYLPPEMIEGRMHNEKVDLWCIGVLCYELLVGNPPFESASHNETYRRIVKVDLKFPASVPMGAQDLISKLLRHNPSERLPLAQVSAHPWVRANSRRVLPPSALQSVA
Aurora B kinase, sequence (Q9NQS7 803-916 partner limits assumed): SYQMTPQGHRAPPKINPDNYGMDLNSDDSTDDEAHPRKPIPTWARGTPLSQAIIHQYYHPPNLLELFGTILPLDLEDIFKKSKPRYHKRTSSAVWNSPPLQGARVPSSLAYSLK

| SMILES | IC50 (Aurora B kinase) [nM] | Selectivity for Aurora B IC50-VEGFR2/IC50-Aurora B (VEGFR2) | also measured |
| --- | --- | --- | --- |
| CCOc1ccc2c(Oc3ccc4c(C(=O)Nc5cc(F)c(F)c(F)c5N)cccc4c3)ccnc2c1 [Compound I-44] | 6.71 | 12.14 | – |
| O=C(NC1CC(F)(F)C1)c1cccc2cc(Oc3ccnc4cc(OCC(F)F)ccc34)ccc12 [Compound I-41] | 2.22 | 127.51 | – |
| Nc1c(NC(=O)c2cccc3cc(Oc4ccnc5cc(OCCF)ccc45)ccc23)ccc(F)c1F [Compound I-32] | 2.01 | 8.07 | – |
| O=C(NC1CCCCC1)c1cccc2cc(Oc3ccnc4cc(OCCF)ccc34)ccc12 [Compound I-35] | 5.26 | 9.55 | – |
| COc1cc(F)c2c(Oc3ccc4c(C(=O)Nc5ccc(F)c(Cl)c5N)cccc4c3)ccnc2c1 [Compound I-36] | 2.92 | 7.75 | – |
| Nc1c(F)cccc1NC(=O)c1cccc2cc(Oc3ccnc4cc(OCCOC(F)F)cc(F)c34)ccc12 [Compound I-28] | 4.12 | 9.68 | – |
| CCCCOc1ccc2c(Oc3ccc4c(C(=O)Nc5ccccc5N)cccc4c3)ccnc2c1 [Compound I-13] | 127 | 0.27 | – |
| CCOc1cc(F)c2c(Oc3ccc4c(C(=O)Nc5ccc(F)c(F)c5N)cccc4c3)ccnc2c1 [Compound I-19] | 5.62 | 9.08 | – |
| CCCOc1ccc2c(Oc3ccc4c(C(=O)Nc5ccc(F)cc5N)cccc4c3)ccnc2c1 [Compound I-12] | 19 | 5.12 | – |
| CC(C)Oc1ccc2c(Oc3ccc4c(C(=O)Nc5ccccc5N)cccc4c3)ccnc2c1 [Compound I-7] | 417 | 0.17 | – |
| COCCOc1ccc2c(Oc3ccc4c(C(=O)NC5CC6(CCC6)C5)cccc4c3)ccnc2c1 [Compound I-25] | 1.55 | 38.05 | – |
| CCOc1cc(F)c2c(Oc3ccc4c(C(=O)Nc5ccccc5N)cccc4c3)ccnc2c1 [Compound I-17] | 4.01 | 8.16 | Kp at 4 h [1]: 0.6 |
| CCOc1cc(F)c2c(Oc3ccc4c(C(=O)Nc5cccc(F)c5N)cccc4c3)ccnc2c1 [Compound I-18] | 6.89 | 9.75 | – |
| O=C(NC1CC(F)(F)C1)c1cccc2cc(Oc3ccnc4cc(OCCF)ccc34)ccc12 [Compound I-33] | 2.65 | 376.79 | – |
| CCOc1ccc2c(Oc3ccc4c(C(=O)Nc5ccc(F)c(F)c5N)cccc4c3)ccnc2c1 [Compound I-6] | 3.18 | 18.64 | – |
| CCOc1ccc2c(Oc3ccc4c(C(=O)Nc5ccccc5N)cccc4c3)ccnc2c1 [Compound I-1] | – | – | Kp at 4 h [1]: 0.73 |
| CCOc1ccc2c(Oc3ccc4c(C(=O)Nc5cc(F)ccc5N)cccc4c3)ccnc2c1 [Compound I-15] | – | – | Kp at 4 h [1]: 0.76 |
| CCOc1cc(F)c2c(Oc3ccc4c(C(=O)Nc5cc(F)ccc5N)cccc4c3)ccnc2c1 [Compound I-20] | – | – | Kp at 4 h [1]: 0.67 |
| CCCOc1ccc2c(Oc3ccc4c(C(=O)Nc5ccccc5N)cccc4c3)ccnc2c1 [Compound I-11] | 33.9 | 0.78 | – |
| COCCOc1ccc2c(Oc3ccc4c(C(=O)NC5CC(F)(F)C5)cccc4c3)ccnc2c1 [Compound I-23] | 1.24 | 9.49 | – |
| CCCCOc1ccc2c(Oc3ccc4c(C(=O)Nc5ccc(C)cc5N)cccc4c3)ccnc2c1 [Compound I-14] | 53.1 | 18.84 | – |
| CCOc1ccc2c(Oc3ccc4c(C(=O)Nc5ccc(F)cc5N)cccc4c3)ccnc2c1 [Compound I-5] | 2.83 | 49.6 | – |
| COc1cc(F)c2c(Oc3ccc4c(C(=O)Nc5ccc(F)c(F)c5N)cccc4c3)ccnc2c1 [Compound I-37] | 2.63 | 14.19 | Apoptosis (%) DNA < 2N (Molt-4 cells; dose 1 μM): 22.55 ± 0.21%; Polyploid (%) DNA > 4N (Molt-4 cells; dose 1 μM): 55.25 ± 5.02%; Tetraploid (%) DNA = 4N (Molt-4 cells; dose 1 μM): 4.68 ± 3.46%; Total (apoptosis + tetraploid + polyploid) (Molt-4 cells; dose 1 μM): 82.48; Apoptosis (%) DNA < 2N (Molt-4 cells; dose 3 μM): 23.75 ± 2.33%; Polyploid (%) DNA > 4N (Molt-4 cells; dose 3 μM): 53.75 ± 4.17%; Tetraploid (%) DNA = 4N (Molt-4 cells; dose 3 μM): 5.75 ± 3.15%; Total (apoptosis + tetraploid + polyploid) (Molt-4 cells; dose 3 μM): 83.25; Kp at 4 h [1]: 0.6 |
| CN(C)CCOc1ccc2c(Oc3ccc4c(C(=O)NC5CC(F)(F)C5)cccc4c3)ccnc2c1 [Compound I-42] | 3.86 | 13.9 | – |
| COCCOc1ccc2c(Oc3ccc4c(C(=O)NC5CC(F)C5)cccc4c3)ccnc2c1 (stereo not drawn) [Compound I-27] | 0.896 | 10.23 | – |
| O=C(NC1CC(F)(F)C1)c1cccc2cc(Oc3ccnc4cc(OCCOC(F)F)ccc34)ccc12 [Compound I-21] | 2.12 | 12.27 | – |
| COc1ccc2c(Oc3ccc4c(C(=O)Nc5cc(F)c(F)c(F)c5N)cccc4c3)ccnc2c1 [Compound I-10] | 3.52 | 13.34 | – |
| COCCOc1ccc2c(Oc3ccc4c(C(=O)NC5CC6(COC6)C5)cccc4c3)ccnc2c1 [Compound I-24] | 1.7 | 109.61 | – |
